Assay results taken from US7259161B2, “Compositions useful as inhibitors of JAK and other protein kinases” (Vertex Pharmaceuticals Incorporated, priority 2002, dated 2007).

target: T1, JAK3 (Homo sapiens, UniProt P52333); assay: JAK3 inhibition assay; type: biochemical; settings: 2 μM ATP, ELISA read at 450 nm
T1 sequence (P52333 1-1124): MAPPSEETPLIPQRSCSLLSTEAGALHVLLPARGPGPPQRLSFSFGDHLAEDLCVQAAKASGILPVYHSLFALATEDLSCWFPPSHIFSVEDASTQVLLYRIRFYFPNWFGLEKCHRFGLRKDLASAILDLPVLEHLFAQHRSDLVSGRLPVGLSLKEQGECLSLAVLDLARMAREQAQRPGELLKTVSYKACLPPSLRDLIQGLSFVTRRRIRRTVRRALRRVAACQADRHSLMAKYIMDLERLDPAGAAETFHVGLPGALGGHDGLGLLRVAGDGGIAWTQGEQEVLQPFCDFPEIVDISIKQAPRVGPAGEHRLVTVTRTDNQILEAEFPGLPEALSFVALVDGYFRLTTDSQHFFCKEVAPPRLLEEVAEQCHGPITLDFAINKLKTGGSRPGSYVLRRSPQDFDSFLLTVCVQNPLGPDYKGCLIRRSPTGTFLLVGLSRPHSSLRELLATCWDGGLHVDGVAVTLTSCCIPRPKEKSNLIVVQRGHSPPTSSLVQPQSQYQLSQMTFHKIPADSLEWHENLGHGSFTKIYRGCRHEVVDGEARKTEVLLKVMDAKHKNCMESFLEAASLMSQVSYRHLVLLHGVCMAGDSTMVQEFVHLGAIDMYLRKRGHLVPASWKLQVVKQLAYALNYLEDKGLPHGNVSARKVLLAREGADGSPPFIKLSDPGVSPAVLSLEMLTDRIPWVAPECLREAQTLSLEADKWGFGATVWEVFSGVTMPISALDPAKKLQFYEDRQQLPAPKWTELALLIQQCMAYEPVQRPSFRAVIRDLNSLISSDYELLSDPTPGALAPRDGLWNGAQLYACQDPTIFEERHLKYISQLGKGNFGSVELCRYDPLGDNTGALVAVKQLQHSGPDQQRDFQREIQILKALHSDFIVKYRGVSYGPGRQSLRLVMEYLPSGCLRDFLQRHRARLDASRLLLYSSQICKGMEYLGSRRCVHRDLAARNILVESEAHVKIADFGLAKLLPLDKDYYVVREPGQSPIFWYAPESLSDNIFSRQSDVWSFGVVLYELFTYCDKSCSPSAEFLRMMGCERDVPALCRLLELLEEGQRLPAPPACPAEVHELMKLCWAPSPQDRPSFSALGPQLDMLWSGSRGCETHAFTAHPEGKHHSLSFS
Method: Compounds were screened for their ability to inhibit JAK3 according to the method described by G. R. Brown, et al, Bioorg. Med. Chem. Lett. 2000, vol. 10, pp 575–579 in the following manner. Into Maxisorb plates, previously coated at 4° C. with Poly (Glu, Ala, Tyr) 6:3:1 then washed with phosphate buffered saline 0.05% and Tween (PBST), was added 2 μM ATP, 5 MM MgCl2, and a solution of compound in DMSO. The reaction was started with JAK enzyme and the plates incubated for 60 minutes at 30° C. The plates were then washed with PBST, 100 μL HRP-Conjugated 4G10 antibody was added, and the plate incubated for 90 minutes at 30° C. The plate was again washed with PBST, 100 μL TMB solution is added, and the plates were incubated for another 30 minutes at 30° C. Sulfuric acid (100 μL of 1M) was added to stop the reaction and the plate is read at 450 nm to obtain the optical densities for analysis to determine Ki values.

| SMILES | Ki |
| --- | --- |
| O=C1COc2ccc(-c3ccnc(Nc4cccc(Cl)c4)n3)cc2N1CCN1CCOCC1 [IVa-31] | < 5 µM |
| O=C1COc2ccc(-c3ccnc(Nc4cccc(O)c4)n3)cc2N1CCN1CCOCC1 [IVa-32] | < 5 µM |
| COc1cccc(Nc2nccc(-c3ccc4c(c3)N(CCN3CCOCC3)C(=O)CO4)n2)c1 [IVa-36] | < 5 µM |
| NS(=O)(=O)c1ccc(Nc2nccc(-c3ccc4c(c3)N(CCN3CCOCC3)C(=O)CO4)n2)cc1 [IVa-39] | < 5 µM |
| O=C1COc2ccc(-c3ccnc(Nc4ccccc4)n3)cc2N1Cc1cccnc1 [IVa-41] | < 5 µM |
| O=C1COc2ccc(-c3ccnc(Nc4cccc(Cl)c4)n3)cc2N1Cc1cccnc1 [IVa-43] | < 5 µM |
| COc1cccc(Nc2nccc(-c3ccc4c(c3)N(Cc3cccnc3)C(=O)CO4)n2)c1 [IVa-45] | < 5 µM |
| COC(=O)c1cccc(Nc2nccc(-c3ccc4c(c3)N(Cc3cccnc3)C(=O)CO4)n2)c1 [IVa-46] | < 5 µM |
| N#Cc1cccc(Nc2nccc(-c3ccc4c(c3)N(Cc3cccnc3)C(=O)CO4)n2)c1 [IVa-47] | < 5 µM |
| O=C1COc2ccc(-c3ccnc(Nc4cccc(-c5ccccc5)c4)n3)cc2N1Cc1cccnc1 [IVa-48] | < 5 µM |
| NS(=O)(=O)c1cccc(Nc2nccc(-c3ccc4c(c3)N(Cc3cccnc3)C(=O)CO4)n2)c1 [IVa-50] | < 5 µM |
| Cc1cc(C)cc(Nc2nccc(-c3ccc4c(c3)N(Cc3cccnc3)C(=O)CO4)n2)c1 [IVa-52] | < 5 µM |
| O=C1COc2ccc(-c3ccnc(Nc4cccc(F)c4)n3)cc2N1Cc1ccccn1 [IVa-55] | < 5 µM |
| O=C1COc2ccc(-c3ccnc(Nc4cccc(Cl)c4)n3)cc2N1Cc1ccccn1 [IVa-56] | < 5 µM |
| COC(=O)c1cccc(Nc2nccc(-c3ccc4c(c3)N(Cc3ccccn3)C(=O)CO4)n2)c1 [IVa-58] | < 5 µM |
| O=C1COc2ccc(-c3ccnc(Nc4cccc(-c5ccccc5)c4)n3)cc2N1Cc1ccccn1 [IVa-59] | < 5 µM |
| O=C1COc2ccc(-c3ccnc(Nc4cccc(Oc5ccccc5)c4)n3)cc2N1Cc1ccccn1 [IVa-60] | < 5 µM |
| O=C1COc2ccc(-c3ccnc(Nc4cccc(Cl)c4)n3)cc2N1Cc1ccncc1 [IVa-66] | < 5 µM |
| NS(=O)(=O)c1cccc(Nc2nccc(-c3ccc4c(c3)N(Cc3ccncc3)C(=O)CO4)n2)c1 [IVa-70] | < 5 µM |
| Cc1cc(C)cc(Nc2nccc(-c3ccc4c(c3)N(Cc3ccncc3)C(=O)CO4)n2)c1 [IVa-72] | < 5 µM |

The remaining lines, values ahead:

| Ki | SMILES |
| --- | --- |
| < 1 µM | CN1C(=O)COc2ccc(-c3ccnc(Nc4ccccc4)n3)cc21 [IVa-1] |
| < 5 µM | CN1C(=O)COc2ccc(-c3ccnc(Nc4cccc(F)c4)n3)cc21 [IVa-2] |
| < 1 µM | Cc1cccc(Nc2nccc(-c3ccc4c(c3)N(C)C(=O)CO4)n2)c1 [IVa-3] |
| < 5 µM | Cc1ccc(Nc2nccc(-c3ccc4c(c3)N(C)C(=O)CO4)n2)cc1 [IVa-4] |
| < 5 µM | COc1ccc(Nc2nccc(-c3ccc4c(c3)N(C)C(=O)CO4)n2)cc1 [IVa-5] |
| < 1 µM | Cc1cc(C)cc(Nc2nccc(-c3ccc4c(c3)N(C)C(=O)CO4)n2)c1 [IVa-6] |
| < 1 µM | COc1cc(Nc2nccc(-c3ccc4c(c3)N(C)C(=O)CO4)n2)cc(OC)c1 [IVa-7] |
| < 5 µM | O=C1COc2ccc(-c3ccnc(Nc4cccc(F)c4)n3)cc2N1 [IVa-10] |
| < 5 µM | O=C1COc2ccc(-c3ccnc(Nc4ccc(F)cc4)n3)cc2N1 [IVa-11] |
| < 5 µM | O=C1COc2ccc(-c3ccnc(Nc4ccc(Cl)cc4)n3)cc2N1 [IVa-13] |
| < 1 µM | COc1cccc(Nc2nccc(-c3ccc4c(c3)NC(=O)CO4)n2)c1 [IVa-14] |
| < 1 µM | Cc1ccccc1Nc1nccc(-c2ccc3c(c2)NC(=O)CO3)n1 [IVa-15] |
| < 1 µM | NS(=O)(=O)c1cccc(Nc2nccc(-c3ccc4c(c3)NC(=O)CO4)n2)c1 [IVa-21] |
| < 1 µM | CN1C(=O)COc2ccc(-c3ccnc(Nc4cccc(S(N)(=O)=O)c4)n3)cc21 [IVa-22] |
| < 1 µM | CN1C(=O)COc2ccc(-c3ccnc(Nc4cccc(C(N)=O)c4)n3)cc21 [IVa-25] |
| < 5 µM | CN1C(=O)COc2ccc(-c3ccnc(Nc4cccc(C#N)c4)n3)cc21 [IVa-26] |
| < 1 µM | CN1C(=O)COc2ccc(-c3ccnc(Nc4cccc(O)c4)n3)cc21 [IVa-27] |
| < 1 µM | COc1cccc(Nc2nccc(-c3ccc4c(c3)N(C)C(=O)CO4)n2)c1 [IVa-28] |
| < 5 µM | O=C1COc2ccc(-c3ccnc(Nc4ccccc4)n3)cc2N1CCN1CCOCC1 [IVa-29] |
| < 5 µM | O=C1COc2ccc(-c3ccnc(Nc4cccc(F)c4)n3)cc2N1CCN1CCOCC1 [IVa-30] |
| < 1 µM | O=C1COc2ccc(-c3ccnc(Nc4cccc(O)c4)n3)cc2N1Cc1cccnc1 [IVa-44] |
| < 1 µM | NS(=O)(=O)c1ccc(Nc2nccc(-c3ccc4c(c3)N(Cc3cccnc3)C(=O)CO4)n2)cc1 [IVa-51] |
| < 1 µM | NC(=O)c1cccc(Nc2nccc(-c3ccc4c(c3)N(Cc3cccnc3)C(=O)CO4)n2)c1 [IVa-53] |
| < 1 µM | COc1cccc(Nc2nccc(-c3ccc4c(c3)N(Cc3ccccn3)C(=O)CO4)n2)c1 [IVa-57] |
| < 1 µM | NS(=O)(=O)c1ccc(Nc2nccc(-c3ccc4c(c3)N(Cc3ccncc3)C(=O)CO4)n2)cc1 [IVa-71] |

target: CDK-2/Cyclin A (Homo sapiens, UniProt P24941); assay: CDK2 inhibition assay (coupled enzyme assay); type: biochemical; settings: 100 μM ATP, 25 nM CDK-2/Cyclin A
Method: Compounds were screened for their ability to inhibit CDK-2/Cyclin A using a standard coupled enzyme assay (Fox et al (1998) Protein Sci 7, 2249). Reactions were carried out in 100 mM HEPES pH 7.5, 10 mM MgCl2, 25 mM NaCl, 1 mM DTT and 1.5% DMSO. Final substrate concentrations in the assay were 100 μM ATP (Sigma chemicals) and 100 μM peptide (American Peptide, Sunnyvale, Calif.). Assays were carried out at 30° C. and 25 nM CDK-2/Cyclin A. Final concentrations of the components of the coupled enzyme system were 2.5 mM phosphoenolpyruvate, 350 μM NADH, 30 μg/ml pyruvate kinase and 10 μg/ml lactate dehydrogenase.
An assay stock buffer solution was prepared containing all of the reagents listed above, with the exception of CDK-2/Cyclin A, DTT and the test compound of interest. 56 μl of the test reaction was placed in a 384 well plate followed by addition of 1 μl of 2 mM DMSO stock containing the test compound (final compound concentration 30 μM). The plate was preincubated for ˜10 minutes at 30° C. and the reaction initiated by addition of 10 μl of enzyme (final concentration 25 nM). Rates of reaction were obtained using a BioRad Ultramark plate reader (Hercules, Calif.) over a 5 minute read time at 30° C. Compounds showing >50% inhibition versus standard wells containing DMSO, but no compound, were titrated and IC50's determined using a similar protocol.

| Ki | SMILES |
| --- | --- |
| < 1000 nM | CN1C(=O)COc2ccc(-c3ccnc(Nc4cccc(S(N)(=O)=O)c4)n3)cc21 [IVa-22] |

target: JNK3 (Homo sapiens, UniProt P53779); assay: JNK3 inhibition assay (spectrophotometric coupled-enzyme assay); type: biochemical; settings: 10 μM ATP, 10 nM activated JNK3
Method: Compounds were assayed for the inhibition of JNK3 by a spectrophotometric coupled-enzyme assay. In this assay, a fixed concentration of activated JNK3 (10 nM) was incubated with various concentrations of a potential inhibitor dissolved in DMSO for 10 minutes at 30° C. in a buffer containing 0.1 M HEPES buffer, pH 7.5, containing 10 mM MgCl2, 2.5 mM phosphoenolpyruvate, 200 μM NADH, 150 μg/mL pyruvate kinase, 50 μg/mL lactate dehydrogenase, and 200 μM EGF receptor peptide. The EGF receptor peptide is a phosphoryl acceptor in the JNK3-catalyzed kinase reaction. The reaction was initiated by the addition of 10 μM ATP and the assay plate is inserted into the spectrophotometer's assay plate compartment that was maintained at 30° C. The decrease of absorbance at 340 nm was monitored as a function of time. The rate data as a function of inhibitor concentration was fitted to competitive inhibition kinetic model to determine the Ki.

Sequence of JNK3 (P53779 whole entry, species assumed): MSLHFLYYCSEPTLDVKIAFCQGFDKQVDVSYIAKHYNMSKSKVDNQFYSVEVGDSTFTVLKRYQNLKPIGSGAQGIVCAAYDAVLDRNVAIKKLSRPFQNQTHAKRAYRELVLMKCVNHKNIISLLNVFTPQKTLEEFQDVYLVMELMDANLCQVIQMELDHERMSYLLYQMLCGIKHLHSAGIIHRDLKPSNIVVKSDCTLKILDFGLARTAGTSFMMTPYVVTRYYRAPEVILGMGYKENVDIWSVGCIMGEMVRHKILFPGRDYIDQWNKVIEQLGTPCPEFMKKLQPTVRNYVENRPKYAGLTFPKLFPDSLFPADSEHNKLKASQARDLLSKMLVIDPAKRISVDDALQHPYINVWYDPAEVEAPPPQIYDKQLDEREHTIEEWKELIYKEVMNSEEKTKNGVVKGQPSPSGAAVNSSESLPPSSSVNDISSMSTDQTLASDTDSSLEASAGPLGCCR

| Ki | SMILES |
| --- | --- |
| < 1000 nM | CN1C(=O)COc2ccc(-c3ccnc(Nc4ccccc4)n3)cc21 [IVa-1] |
| < 1000 nM | CN1C(=O)COc2ccc(-c3ccnc(Nc4cccc(F)c4)n3)cc21 [IVa-2] |
| < 1000 nM | Cc1cccc(Nc2nccc(-c3ccc4c(c3)N(C)C(=O)CO4)n2)c1 [IVa-3] |
| < 1000 nM | Cc1ccc(Nc2nccc(-c3ccc4c(c3)N(C)C(=O)CO4)n2)cc1 [IVa-4] |
| < 1000 nM | COc1ccc(Nc2nccc(-c3ccc4c(c3)N(C)C(=O)CO4)n2)cc1 [IVa-5] |
| < 1000 nM | CN1C(=O)COc2ccc(-c3ccnc(Nc4cccc(S(N)(=O)=O)c4)n3)cc21 [IVa-22] |
